According to patent US20110092367A1, “Herbicidal Compositions Comprising 4-amino-3,6-dichloropyridine-2-carboxylic Acid” (BASF SE, priority 2008, published 2011):

How the values were obtained:
Type in all cases: in vivo
Alopecurus myosuroides = assay: Field trial Example 1, successive application: damage on ALOMY
Description: (§1) Aminiopyralid was used as commercial aquaeous solution having an active ingredient concentration of 240 g/l (Milestone™). Metazachlor was used as a commercial suspension concentrate having an active ingredient concentration of 500 g/l (Butisan S®).
(§2) The performance of aminopyralid applied as an alone treatment at 15, 30 and 50 g a.i./ha applied as an early post emergence treatment and an post emergence treatment in comparison to two different applications including metazachlor at 500 g a.i./ha as an early post emergence application in succession of aminopyralid as a post emergence application at 15 and 30 g a.i./ha was assessed in an oilseed rape field trials.
(§3) The early post emergence treatment was applied by means of fine distributed nozzles at the growth stage (GS) of the crop BBCH 11-12.
(§4) The post emergence treatment was applied by means of fine distributed nozzles at the growth stage (GS) of the crop BBCH 13-14.
(§5) The test period extended over the autumn and spring season (205 days).
(§6) In the following experiments, the herbicidal activity for the individual herbicide compounds (solo application) and of the herbicidal succession was assessed 4 times:
(§7) The evaluation for the damage on undesired weeds caused by the chemical compositions was carried out using a scale from 0 to 100%, compared to the untreated control plants. Here, 0 means no damage and 100 means complete destruction of the plants.

Veronica persica = assay: Field trial Example 1, successive application: damage on VERPE
Description: as §1, §2, §3, §4, §5, §6, §7

Matricaria inodora [1] = assay: Field trial Example 1, successive application: damage on MATIN
Description: as §1, §2, §3, §4, §5, §6, §7

Centaurea cyanus = assay: Field trial Example 2, combined application: CENCY; settings: Aminopyralid 7.5 g ai/ha solo, 78 DAT
Procedure: as §1, §7
(§8) The value E, which is to be expected if the activity of the individual compounds is just additive, was calculated using the method of S. R. Colby (1967) “Calculating synergistic and antagonistic responses of herbicide combinations”, Weeds 15, p. 22 ff.
(§9) The performance of aminopyralid, applied as an alone treatment at […] and 15 g ai/ha, and the performance of metazachlor, applied as an alone treatment at 375 and 500 g ai/ha, as well as the mixtures of the both compounds have been assessed in winter oilseed rape field trials. The trials have been conducted in Germany at two locations.
(§10) Post emergence treatment was applied by means of fine distributed nozzels at the growth stage (GS/BBCH 11/12).

Papaver rhoeas [2] = assay: Field trial Example 2, combined application: PAPRH
Procedure: as §1, §7, §8, §9, §10

Papaver rhoeas [3] = assay: Greenhouse trial, post-emergence: PAPRH; settings: aminopyralid 10 g ai/ha solo
Procedure: (§11) The test plants have been seeded, separately for each species, in plastic containers in sandy loamy soil containing 5% organic matter.
(§12) For the post emergence treatment, the plants were first grown to the 2 leaf station (GS 12). Here, the herbicidal compositions were suspended or emulsified in water as distribution medium and sprayed using finely distributing nozzels.
(§13) The plants have been cultivated due to there individual requirements at 10-25° C. and 20-35° C. The plants were irrigated due to there necessity. […]
as §7
(§14) Calculation of expected activity of binary mixtures was done by using the Colby-Formula according to Example 1.

Matricaria inodora [4] = assay: Greenhouse trial, post-emergence: MATIN; settings: post-emergence (Tables 7-9)
Procedure: as §11, §12, §13, §7, §14

Stellaria media = assay: Greenhouse trial, post-emergence: STEME; settings: post-emergence (Tables 7-9)
Procedure: as §11, §12, §13, §7, §14

Centauria cyanus = assay: Greenhouse trial, post-emergence: CENCY; settings: for % activity 28 DAT: CENCY, post-emergence (Tables 7-9)
Procedure: as §11, §12, §13, §7, §14

[5] = 15 g ai/ha, treatment A early post emergence, DAT 25/DALT 10
[6] = 15 g ai/ha, treatment A early post emergence, DAT 65/DALT 50
[7] = 15 g ai/ha, treatment A early post emergence, DAT 176/DALT 161
[8] = 15 g ai/ha, treatment B post emergence, DAT 25/DALT 10
[9] = 15 g ai/ha, treatment B post emergence, DAT 65/DALT 50
[10] = 15 g ai/ha, treatment B post emergence, DAT 176/DALT 161
[11] = 30 g ai/ha, treatment A early post emergence, DAT 25/DALT 10
[12] = 30 g ai/ha, treatment A early post emergence, DAT 65/DALT 50
[13] = 30 g ai/ha, treatment A early post emergence, DAT 176/DALT 161
[14] = 30 g ai/ha, treatment B post emergence, DAT 25/DALT 10
[15] = 30 g ai/ha, treatment B post emergence, DAT 65/DALT 50
[16] = 30 g ai/ha, treatment B post emergence, DAT 176/DALT 161
[17] = 50 g ai/ha, treatment A early post emergence, DAT 25/DALT 10
[18] = 50 g ai/ha, treatment A early post emergence, DAT 65/DALT 50
[19] = 50 g ai/ha, treatment A early post emergence, DAT 176/DALT 161
[20] = 50 g ai/ha, treatment B post emergence, DAT 25/DALT 10
[21] = 50 g ai/ha, treatment B post emergence, DAT 65/DALT 50
[22] = 50 g ai/ha, treatment B post emergence, DAT 176/DALT 161
[23] = aminopyralid 15 g ai/ha, treatment A, DAT 205/DALT 190
[24] = aminopyralid 15 g ai/ha, treatment B, DAT 205/DALT 190
[25] = aminopyralid 30 g ai/ha, treatment A, DAT 205/DALT 190
[26] = aminopyralid 30 g ai/ha, treatment B, DAT 205/DALT 190
[27] = aminopyralid 50 g ai/ha, treatment A, DAT 205/DALT 190
[28] = aminopyralid 50 g ai/ha, treatment B, DAT 205/DALT 190
[29] = post-emergence, 672 h, read-out: % activity 28 DAT, CENCY

With `Nc1cc(Cl)nc(C(=O)O)c1Cl` [aminopyralid, 4-amino-3,6-dichloropyridine-2-carboxylic acid] the “damage on ALOMY” value (Alopecurus myosuroides; [5]) was 0%, the “damage on ALOMY” value (Alopecurus myosuroides; [6]) was 22% and the “damage on ALOMY” value (Alopecurus myosuroides; [7]) was 22%. The “damage on ALOMY” value (Alopecurus myosuroides; [8]) was 0%, the “damage on ALOMY” value (Alopecurus myosuroides; [9]) was 25% and the “damage on ALOMY” value (Alopecurus myosuroides; [10]) was 25%. For the same molecule, the “damage on ALOMY” value (Alopecurus myosuroides; [11]) was 57%, the “damage on ALOMY” value (Alopecurus myosuroides; [12]) was 37% and the “damage on ALOMY” value (Alopecurus myosuroides; [13]) was 37%. For the same molecule, the “damage on ALOMY” value (Alopecurus myosuroides; [14]) was 0%, the “damage on ALOMY” value (Alopecurus myosuroides; [15]) was 32% and the “damage on ALOMY” value (Alopecurus myosuroides; [16]) was 32%. The “damage on ALOMY” value (Alopecurus myosuroides; [17]) was 77%, the “damage on ALOMY” value (Alopecurus myosuroides; [18]) was 80% and the “damage on ALOMY” value (Alopecurus myosuroides; [19]) was 80%. The “damage on ALOMY” value (Alopecurus myosuroides; [20]) was 20%, the “damage on ALOMY” value (Alopecurus myosuroides; [21]) was 42% and the “damage on ALOMY” value (Alopecurus myosuroides; [22]) was 42%. The “damage on ALOMY” value (Alopecurus myosuroides; [23]) was 22%, the “damage on ALOMY” value (Alopecurus myosuroides; [24]) was 38% and the “damage on ALOMY” value (Alopecurus myosuroides; [25]) was 37%. For the same molecule, the “damage on ALOMY” value (Alopecurus myosuroides; [26]) was 32%, the “damage on ALOMY” value (Alopecurus myosuroides; [27]) was 80% and the “damage on ALOMY” value (Alopecurus myosuroides; [28]) was 42%. The “damage on VERPE” value (Veronica persica; [5]) was 0%, the “damage on VERPE” value (Veronica persica; [6]) was 0% and the “damage on VERPE” value (Veronica persica; [7]) was 0%. The “damage on VERPE” value (Veronica persica; [8]) was 0%, the “damage on VERPE” value (Veronica persica; [9]) was 0% and the “damage on VERPE” value (Veronica persica; [10]) was 12%. The “damage on VERPE” value (Veronica persica; [11]) was 23%, the “damage on VERPE” value (Veronica persica; [12]) was 13% and the “damage on VERPE” value (Veronica persica; [13]) was 12%. The “damage on VERPE” value (Veronica persica; [14]) was 0%, the “damage on VERPE” value (Veronica persica; [15]) was 0% and the “damage on VERPE” value (Veronica persica; [16]) was 10%. For the same molecule, the “damage on VERPE” value (Veronica persica; [17]) was 73%, the “damage on VERPE” value (Veronica persica; [18]) was 50% and the “damage on VERPE” value (Veronica persica; [19]) was 50%. For the same molecule, the “damage on VERPE” value (Veronica persica; [20]) was 13%, the “damage on VERPE” value (Veronica persica; [21]) was 20% and the “damage on VERPE” value (Veronica persica; [22]) was 30%. The “damage on VERPE” value (Veronica persica; [23]) was 0%, the “damage on VERPE” value (Veronica persica; [24]) was 18% and the “damage on VERPE” value (Veronica persica; [25]) was 12%. For the same molecule, the “damage on VERPE” value (Veronica persica; [26]) was 12%, the “damage on VERPE” value (Veronica persica; [27]) was 48% and the “damage on VERPE” value (Veronica persica; [28]) was 33%. The “damage on MATIN” value (Matricaria inodora [1]; [5]) was 97%, the “damage on MATIN” value (Matricaria inodora [1]; [6]) was 96% and the “damage on MATIN” value (Matricaria inodora [1]; [7]) was 100%. The “damage on MATIN” value (Matricaria inodora [1]; [8]) was 88%, the “damage on MATIN” value (Matricaria inodora [1]; [9]) was 88% and the “damage on MATIN” value (Matricaria inodora [1]; [10]) was 98%. For the same molecule, the “damage on MATIN” value (Matricaria inodora [1]; [11]) was 100%, the “damage on MATIN” value (Matricaria inodora [1]; [12]) was 98% and the “damage on MATIN” value (Matricaria inodora [1]; [13]) was 100%. The “damage on MATIN” value (Matricaria inodora [1]; [14]) was 82%, the “damage on MATIN” value (Matricaria inodora [1]; [15]) was 91% and the “damage on MATIN” value (Matricaria inodora [1]; [16]) was 100%. The “damage on MATIN” value (Matricaria inodora [1]; [17]) was 100%, the “damage on MATIN” value (Matricaria inodora [1]; [18]) was 100% and the “damage on MATIN” value (Matricaria inodora [1]; [19]) was 100%. The “damage on MATIN” value (Matricaria inodora [1]; [20]) was 88%, the “damage on MATIN” value (Matricaria inodora [1]; [21]) was 94% and the “damage on MATIN” value (Matricaria inodora [1]; [22]) was 98%. For the same molecule, the “damage on MATIN” value (Matricaria inodora [1]; [23]) was 100%, the “damage on MATIN” value (Matricaria inodora [1]; [24]) was 100% and the “damage on MATIN” value (Matricaria inodora [1]; [25]) was 100%. The “damage on MATIN” value (Matricaria inodora [1]; [26]) was 100%, the “damage on MATIN” value (Matricaria inodora [1]; [27]) was 100% and the “damage on MATIN” value (Matricaria inodora [1]; [28]) was 100%. For the same molecule, the “% activity” value (Centaurea cyanus) was 98%, the “% activity” value (Papaver rhoeas [2]; Aminopyralid 7.5 g ai/ha solo, 29 DAT) was 94% and the “% activity” value (Papaver rhoeas [2]; Aminopyralid 7.5 g ai/ha solo, 72 DAT) was 88%. The “% activity” value (Papaver rhoeas [2]; Aminopyralid 7.5 g ai/ha solo, 78 DAT) was 95%, the “% activity” value (Papaver rhoeas [2]; Aminopyralid 15 g ai/ha solo, 28 DAT) was 92% and the “% activity” value (Papaver rhoeas [2]; Aminopyralid 15 g ai/ha solo, 72 DAT) was 97%. For the same molecule, the “% activity 28 DAT” value (Papaver rhoeas [3]; post-emergence (Table 10)) was 95%, the “% activity 28 DAT” value (Papaver rhoeas [3]; post-emergence (Tables 7-9)) was 35% and the “% activity 28 DAT” value (Matricaria inodora [4]; aminopyralid 5 g ai/ha solo) was 35%. The “% activity 28 DAT” value (Matricaria inodora [4]; aminopyralid 10 g ai/ha solo) was 80%, the “% activity 28 DAT” value (Stellaria media; aminopyralid 5 g ai/ha solo) was 35% and the “% activity 28 DAT” value (Stellaria media; aminopyralid 10 g ai/ha solo) was 65%. The “% activity 28 DAT” value (Centauria cyanus; aminopyralid 5 g ai/ha solo) was 60%, the “% activity 28 DAT” value (Centauria cyanus; aminopyralid 10 g ai/ha solo) was 65% and the inhibition at 5 g/ha (Centauria cyanus; [29]) was 70%. For the same molecule, the inhibition at 10 g/ha (Centauria cyanus; [29]) was 85%.
